Series [1] is described as follows: Chemical stability of compound in simulated gastric fluid assessed as compound remaining at 5 uM measured after 1.5 hrs by LC-MS/MS analysis. Type of series: ADME, physicochemical. The following applies: read-out: Stabilty.
Series [2] in a line: Chemical stability of compound in simulated intestinal fluid assessed as compound remaining at 5 uM measured after 3 hrs by LC-MS/MS analysis. Conditions: read-out: Stabilty. Type of series: ADME, physicochemical.
Series [3] in a line: Stability in mouse plasma assessed as parent compound remaining measured after 2 hrs by LC-MS/MS analysis. Conditions: read-out: Stabilty. It counts as ADME, cell-free.
Series [4] is described as follows: Dissociation constant, pKa of the compound. It counts as physicochemical.
Series [5] is described as follows: Drug metabolism in Beagle dog hepatocytes assessed as unmetabolized compound at 10 uM incubated for 120 mins by UPLC-QTOF-PDA analysis. It counts as ADME, cell-based, Canis lupus familiaris, Hepatocyte. The following applies: read-out: Drug metabolism.
A short description of series [6]: Drug metabolism in cynomolgus monkey hepatocytes assessed as unmetabolized compound at 10 uM incubated for 120 mins by UPLC-QTOF-PDA analysis. Type of series: ADME, cell-based, Macaca fascicularis, Hepatocyte. The following applies: read-out: Drug metabolism.
Series [7] is described as follows: Drug metabolism in human hepatocytes assessed as unmetabolized compound at 10 uM incubated for 120 mins by UPLC-QTOF-PDA analysis. Type of series: ADME, cell-based, Hepatocyte. The following applies: read-out: Drug metabolism.
For series [8], the target named is Cytochrome P450 2D6 (Homo sapiens, UniProt P10635). Nature of the series: Inhibition of CYP2D6 in human hepatocytes. It counts as ADME, cell-based, Hepatocyte.
For series [9], the target named is T1, Cytochrome P450 1A2 (Homo sapiens, UniProt P05177).
T1 sequence (P05177 whole entry): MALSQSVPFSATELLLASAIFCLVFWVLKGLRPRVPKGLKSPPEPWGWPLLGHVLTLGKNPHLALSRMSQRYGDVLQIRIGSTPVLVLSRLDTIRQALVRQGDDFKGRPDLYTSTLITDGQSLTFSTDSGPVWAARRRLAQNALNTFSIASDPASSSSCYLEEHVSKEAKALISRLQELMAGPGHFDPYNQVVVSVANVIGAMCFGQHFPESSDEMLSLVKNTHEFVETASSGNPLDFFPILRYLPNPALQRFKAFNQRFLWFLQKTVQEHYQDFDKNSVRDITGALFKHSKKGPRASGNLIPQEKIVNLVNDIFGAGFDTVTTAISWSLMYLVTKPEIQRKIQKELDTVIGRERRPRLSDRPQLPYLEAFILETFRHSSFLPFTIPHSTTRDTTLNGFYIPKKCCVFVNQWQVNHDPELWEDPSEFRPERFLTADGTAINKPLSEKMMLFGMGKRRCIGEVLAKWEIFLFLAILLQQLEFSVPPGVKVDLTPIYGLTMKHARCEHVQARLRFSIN
Description: Inhibition of CYP1A2 in human hepatocytes. It counts as ADME, cell-based, Hepatocyte.

Series [10] concerns the target Cytochrome P450 3A4 (Homo sapiens, UniProt P08684). Description: Induction of CYP3A4 in human hepatocytes. It counts as ADME, cell-based, Hepatocyte.
Series [11] in a line: Tmax in female cynomolgus monkey at 150 mg/kg, po BID measured on day 8. It counts as ADME, organism-based, Macaca fascicularis. Conditions: in vivo.
The nature of series [12]: AUC (0 to 24 hrs) in male cynomolgus monkey at 15 mg/kg, iv measured on day 1. It counts as ADME, organism-based, Macaca fascicularis. Details: time < 24 hr, route intravenous, dose 15 mg/kg. Conditions: in vivo.
Series [13] in a line: Drug metabolism in cynomolgus monkey assessed as formation of M9 metabolite at 75 to 675 mg/kg, po administered as single dose. Conditions: in vivo, dose 75-675 mg/kg. It counts as ADME, organism-based, Macaca fascicularis.
Series [14] in a line: Drug metabolism in cynomolgus monkey assessed as formation of M9 metabolite at 75 to 375 mg/kg, po BID. It counts as ADME, organism-based, Macaca fascicularis. Conditions: in vivo, dose 75-375 mg/kg.
Series [15] in a line: Drug metabolism in cynomolgus monkey assessed as indoximod formation by measuring indoximod Tmax at 75 to 375 mg/kg, po BID. Type of series: ADME, organism-based, Macaca fascicularis. Conditions: in vivo, dose 75-375 mg/kg.
Series [16] is described as follows: Drug metabolism in cynomolgus monkey assessed as ratio of indoximod to parent compound at 75 to 375 mg/kg, po BID administered […]. The following applies: in vivo, dose 75-375 mg/kg. Type of series: ADME, organism-based, Macaca fascicularis.
Series [17] is described as follows: Oral bioavailability in male cynomolgus monkey at 275 micromol/kg. It counts as ADME, organism-based, Macaca fascicularis. Conditions: in vivo, at 275 µmol/kg.
The nature of series [18]: Protein binding in Beagle dog plasma. It counts as ADME, cell-free, Canis lupus familiaris. Conditions: read-out: PPB.
A short description of series [19]: Toxicity in po dosed male rat administered twice a day. The following applies: in vivo. Type of series: organism-based.
Series [20] can be described thus: AUC (0 to 12 hrs) in rat po BID measured on day 28. It counts as ADME, organism-based. More on the design: time < 12 hr, route oral. Conditions: in vivo.
Series [21] is described as follows: Toxicity in rat assessed as abnormal respiratory sounds at 150 to 180 mg/kg, po. It counts as organism-based. Conditions: in vivo, dose 150-180 mg/kg.
Series [22] in a line: Toxicity in rat assessed as labored breathing at 150 to 180 mg/kg, po. The following applies: in vivo, dose 150-180 mg/kg. Type of series: organism-based.
Series [23] in a line: Toxicity in rat assessed as distended abdomen at 150 to 180 mg/kg, po. The following applies: in vivo, dose 150-180 mg/kg. Type of series: organism-based.
Series [24] in a line: Toxicity in rat assessed as decreased food assumption at 150 to 180 mg/kg, po. It counts as organism-based. Conditions: in vivo, dose 150-180 mg/kg.
The nature of series [25]: Genotoxicity in rat. Type of series: toxicity.
A short description of series [26]: Toxicity in monkey assessed as change in respiratory parameter. Details: species or system Macaca mulatta. Conditions: rhesus monkey, in vivo.
Series [27] in a line: AUC (0 to 24 hrs) at steady state in mouse at 62 mg/kg administered bid. Type of series: ADME, organism-based. More on the design: time < 24 hr, dose 62 mg/kg. The following applies: in vivo.
Series [28] is described as follows: Cmax in mouse at 250 mg/kg administered bid. It counts as ADME, organism-based. Details: dose 250 mg/kg. The following applies: in vivo.
Series [29] is described as follows: Cmax in human up to 1200 mg administered bid. Type of series: ADME. More on the design: dose <=1200.
Series [30] can be described thus: AUC (0 to infinity) in human up to 1200 mg administered bid. More on the design: time infinity, dose <=1200. It counts as ADME.
The nature of series [31]: Cmax in human at 2400 mg administered bid. Type of series: ADME. More on the design: dose 2400 mg. Conditions: in vivo.
Series [32] is described as follows: Dose normalized Cmax in rat at 50 mg/kg, po measured upto 72 hrs by LC-MS/MS analysis. It counts as ADME, organism-based. Conditions: in vivo.
The nature of series [33]: Dose normalized AUC (0 to infinity) in rat at 50 mg/kg, po measured upto 72 hrs by LC-MS/MS analysis. Type of series: ADME, organism-based. Conditions: in vivo.
A short description of series [34]: AUC (0 to 24 hrs) at steady state in […] at 1200 mg, BID. Type of series: ADME. Details: time < 24 hr, dose 1200 mg. The following applies: in vivo.
Series [35] can be described thus: Cmax in female cynomolgus monkey at 225 mg/kg, po measured on day 1. Type of series: ADME, organism-based, Macaca fascicularis. Details: route oral, dose 225 mg/kg. The following applies: in vivo.
Series [36] in a line: Half life in male cynomolgus monkey at 15 mg/kg, iv measured on day 1. Type of series: ADME, organism-based, Macaca fascicularis. The following applies: in vivo.
The nature of series [37]: Half life in female cynomolgus monkey at 15 mg/kg, iv measured on day 1. Type of series: ADME, organism-based, Macaca fascicularis. Conditions: in vivo.
Series [38] can be described thus: Half life in female cynomolgus monkey at 75 mg/kg, po measured on day 1. Type of series: ADME, organism-based, Macaca fascicularis. The following applies: in vivo.
The nature of series [39]: Apparent oral clearance in male cynomolgus monkey at 225 mg/kg, po measured on day 1. Type of series: ADME, organism-based, Macaca fascicularis. The following applies: in vivo.
Series [40] is described as follows: Half life in female cynomolgus monkey at 225 mg/kg, po measured on day 1. It counts as ADME, organism-based, Macaca fascicularis. The following applies: in vivo.
The nature of series [41]: Apparent oral clearance in female cynomolgus monkey at 225 mg/kg, po measured on day 1. It counts as ADME, organism-based, Macaca fascicularis. Conditions: in vivo.
A short description of series [42]: Half life in rat at 20 to 900 mg/kg, po. Type of series: ADME, organism-based. The following applies: in vivo, dose 20-900 mg/kg.
A short description of series [43]: Half life in rat. It counts as ADME. Conditions: in vivo.

Cytochrome P450 2D6, sequence (P10635 whole entry): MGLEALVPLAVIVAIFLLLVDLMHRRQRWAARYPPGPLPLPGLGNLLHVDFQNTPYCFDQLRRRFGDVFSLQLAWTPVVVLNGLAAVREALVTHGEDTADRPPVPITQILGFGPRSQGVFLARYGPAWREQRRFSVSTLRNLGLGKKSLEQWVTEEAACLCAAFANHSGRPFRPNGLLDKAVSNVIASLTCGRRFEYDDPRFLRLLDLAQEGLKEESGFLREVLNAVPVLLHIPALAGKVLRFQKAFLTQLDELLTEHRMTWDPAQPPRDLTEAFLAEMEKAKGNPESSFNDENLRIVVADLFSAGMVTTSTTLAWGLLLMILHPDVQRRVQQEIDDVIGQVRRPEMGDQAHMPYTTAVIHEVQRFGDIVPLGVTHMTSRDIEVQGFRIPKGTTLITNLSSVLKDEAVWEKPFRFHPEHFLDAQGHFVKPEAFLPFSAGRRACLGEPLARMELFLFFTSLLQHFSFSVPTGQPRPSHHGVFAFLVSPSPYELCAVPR
Cytochrome P450 3A4, sequence (P08684 whole entry): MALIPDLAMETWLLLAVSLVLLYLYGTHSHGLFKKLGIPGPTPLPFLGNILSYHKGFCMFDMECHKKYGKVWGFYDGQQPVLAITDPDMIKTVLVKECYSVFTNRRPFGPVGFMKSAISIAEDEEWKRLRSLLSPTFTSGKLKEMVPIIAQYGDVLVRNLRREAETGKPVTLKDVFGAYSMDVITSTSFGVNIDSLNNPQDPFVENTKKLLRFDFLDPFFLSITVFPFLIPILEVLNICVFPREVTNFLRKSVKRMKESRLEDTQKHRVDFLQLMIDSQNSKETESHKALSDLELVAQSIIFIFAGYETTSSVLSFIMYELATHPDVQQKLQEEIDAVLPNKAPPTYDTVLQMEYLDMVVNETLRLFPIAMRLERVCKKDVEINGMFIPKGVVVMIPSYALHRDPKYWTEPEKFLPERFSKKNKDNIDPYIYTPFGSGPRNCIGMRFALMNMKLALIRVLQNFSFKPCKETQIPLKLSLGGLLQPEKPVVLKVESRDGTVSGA

For `CCOC(=O)[C@@H](Cc1cn(C)c2ccccc12)NC(=O)[C@@H](N)CC(C)C.Cl`, in [1], the remaining at 1.5 h, 5 µM is 92%. In addition, the remaining at 3 h, 5 µM in series [2] is 91%. Also, in series [3], the remaining at 2 h was determined as 0%. In [4], the pKa – broadly, the negative logarithm of the acid dissociation constant – was determined as 7.76. For the same compound, the remaining at 2 h, 10 µM in series [5] is 1.1%; in [6], 1.3%; in series [7], 0.9%. For the same compound, the 50% inhibitory concentration (IC50) (usually the concentration that gives 50% inhibition) in series [8] was 19 µM; in series [9] it was above 50 µM. In addition, the Activity result in [10] was “Not Active”; in series [21], “Toxic”; in series [22] it was “Toxic”; in [23], “Toxic”; in series [24], “Toxic”; in series [25], “Non-Toxic”. The Activity result in series [26] is recorded as “Non-Toxic”. Further, the Tmax in [11] and in series [15] was 1 h each time. In [12], the AUC (in general, concentration integrated over time) amounted to 0.309 µM·h. Moreover, the Drug metabolism entry in [13] and in series [14] was “Metabolite_Detected” throughout. The Ratio in [16] was determined as 690. For the same compound, the F in [17] was 10%. For the same compound, the fraction unbound in series [18] amounted to 0.5. The compound also yielded a TD10 in [19] of 150 mg/kg. The compound also displayed an AUC at 12 h in series [20] of 953 µM·h.

Regarding `Cn1cc(C[C@@H](N)C(=O)O)c2ccccc21` [INDOXIMOD], the AUC at 24 h in series [27] was above 170 µM·h; in series [34] it was 240 µM·h. Also, the Cmax (in general, the maximum level reached in the sampled fluid or tissue) in [28] stood at 50 µM; in [29], 13.7 µM; in series [31], 22 µM; in [35], 68.5 µM. Moreover, in series [30], the AUC(0-inf) (in general, the area under the concentration-time curve extrapolated to infinity) amounted to 114 µM·h. Besides, the Cmax/dose in series [32] came out at 27 µM. The compound further yielded an AUC/dose in series [33] of 1323 µM·h. Besides, the half-life (commonly the time needed for the level to fall by half in the phase considered) in series [36] is 2 h; in series [37], 1.5 h; in series [38], 1.8 h; in series [40] it was 3.8 h; in series [42] it was 23 h; in series [43] it was 30 h. The CL/F (commonly the apparent clearance, not corrected for the fraction that reaches the circulation) in series [39] was 22.1 mL/min/kg; in series [41], 82.2 mL/min/kg.
